Data published in ChEMBL document CHEMBL4428091, “Design and optimization of (3-aryl-1H-indazol-6-yl)spiro[cyclopropane-1,3'-indolin]-2'-ones as potent PLK4 inhibitors with oral antitumor efficacy” (Bioorg Med Chem Lett, 2016).
One block for each molecule: values may come before it.

Columns and labels:
[1] = target: T1, Serine/threonine-protein kinase PLK4 (Homo sapiens, UniProt O00444); assay: Inhibition of PLK4 (unknown origin)
T1 sequence (O00444 whole entry): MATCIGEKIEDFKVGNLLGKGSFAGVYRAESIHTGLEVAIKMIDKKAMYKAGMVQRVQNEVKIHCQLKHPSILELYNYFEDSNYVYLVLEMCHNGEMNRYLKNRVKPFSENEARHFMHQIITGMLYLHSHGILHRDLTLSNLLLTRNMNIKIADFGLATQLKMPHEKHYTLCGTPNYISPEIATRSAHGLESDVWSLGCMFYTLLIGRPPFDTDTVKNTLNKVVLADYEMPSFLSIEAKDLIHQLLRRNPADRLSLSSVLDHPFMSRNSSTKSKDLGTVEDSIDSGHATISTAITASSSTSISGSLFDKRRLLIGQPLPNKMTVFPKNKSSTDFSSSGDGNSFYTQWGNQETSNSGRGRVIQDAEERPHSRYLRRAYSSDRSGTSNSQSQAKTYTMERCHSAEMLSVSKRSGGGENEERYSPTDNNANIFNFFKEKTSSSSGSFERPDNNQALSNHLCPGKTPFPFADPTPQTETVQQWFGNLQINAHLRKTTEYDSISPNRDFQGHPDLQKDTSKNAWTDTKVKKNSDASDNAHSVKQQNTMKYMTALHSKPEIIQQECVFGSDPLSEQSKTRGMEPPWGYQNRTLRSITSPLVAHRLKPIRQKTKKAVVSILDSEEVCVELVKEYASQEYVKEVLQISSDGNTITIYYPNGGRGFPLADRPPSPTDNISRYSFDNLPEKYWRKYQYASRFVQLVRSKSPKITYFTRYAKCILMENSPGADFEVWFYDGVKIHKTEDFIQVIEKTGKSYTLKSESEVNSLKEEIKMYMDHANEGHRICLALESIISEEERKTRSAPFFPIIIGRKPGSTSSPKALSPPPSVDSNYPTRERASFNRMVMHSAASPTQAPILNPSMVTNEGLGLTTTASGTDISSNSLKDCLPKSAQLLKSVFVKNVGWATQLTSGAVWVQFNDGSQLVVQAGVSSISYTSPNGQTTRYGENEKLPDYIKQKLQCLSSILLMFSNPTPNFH

[2] = target: T2, Receptor-type tyrosine-protein kinase FLT3 (Homo sapiens, UniProt P36888); assay: Inhibition of FLT3 (unknown origin)
T2 sequence (P36888 whole entry): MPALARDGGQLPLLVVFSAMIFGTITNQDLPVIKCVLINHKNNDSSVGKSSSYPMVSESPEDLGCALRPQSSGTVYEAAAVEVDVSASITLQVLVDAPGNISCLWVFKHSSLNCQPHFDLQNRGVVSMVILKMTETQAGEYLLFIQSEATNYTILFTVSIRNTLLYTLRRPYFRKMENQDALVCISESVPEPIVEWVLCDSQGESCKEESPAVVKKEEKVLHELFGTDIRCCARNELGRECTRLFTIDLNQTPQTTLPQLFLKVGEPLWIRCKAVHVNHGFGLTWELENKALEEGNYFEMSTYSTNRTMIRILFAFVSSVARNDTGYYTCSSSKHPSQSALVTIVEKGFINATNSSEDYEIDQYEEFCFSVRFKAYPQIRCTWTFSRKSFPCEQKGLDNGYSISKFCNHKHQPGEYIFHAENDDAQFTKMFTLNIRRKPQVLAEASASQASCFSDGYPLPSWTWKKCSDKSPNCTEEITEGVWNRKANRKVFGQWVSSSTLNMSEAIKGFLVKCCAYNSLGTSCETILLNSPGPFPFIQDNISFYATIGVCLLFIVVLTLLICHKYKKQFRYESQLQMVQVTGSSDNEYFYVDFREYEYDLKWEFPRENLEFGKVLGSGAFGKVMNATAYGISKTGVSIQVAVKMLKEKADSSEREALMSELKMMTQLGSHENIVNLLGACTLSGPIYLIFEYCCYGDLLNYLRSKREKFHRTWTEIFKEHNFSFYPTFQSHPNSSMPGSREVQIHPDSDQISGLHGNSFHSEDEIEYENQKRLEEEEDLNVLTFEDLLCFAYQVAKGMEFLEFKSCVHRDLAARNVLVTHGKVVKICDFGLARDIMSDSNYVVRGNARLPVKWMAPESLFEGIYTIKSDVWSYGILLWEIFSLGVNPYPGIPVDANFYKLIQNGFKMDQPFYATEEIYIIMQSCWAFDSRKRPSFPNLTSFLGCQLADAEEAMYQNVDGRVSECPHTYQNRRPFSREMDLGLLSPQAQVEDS

MDA-MB-468 = assay: Growth inhibition of human MDA-MB-468 cells; type: functional
[3] = target: Vascular endothelial growth factor receptor 2 (Homo sapiens, UniProt P35968); assay: Inhibition of KDR (unknown origin)
Sequence of Vascular endothelial growth factor receptor 2 (P35968 whole entry): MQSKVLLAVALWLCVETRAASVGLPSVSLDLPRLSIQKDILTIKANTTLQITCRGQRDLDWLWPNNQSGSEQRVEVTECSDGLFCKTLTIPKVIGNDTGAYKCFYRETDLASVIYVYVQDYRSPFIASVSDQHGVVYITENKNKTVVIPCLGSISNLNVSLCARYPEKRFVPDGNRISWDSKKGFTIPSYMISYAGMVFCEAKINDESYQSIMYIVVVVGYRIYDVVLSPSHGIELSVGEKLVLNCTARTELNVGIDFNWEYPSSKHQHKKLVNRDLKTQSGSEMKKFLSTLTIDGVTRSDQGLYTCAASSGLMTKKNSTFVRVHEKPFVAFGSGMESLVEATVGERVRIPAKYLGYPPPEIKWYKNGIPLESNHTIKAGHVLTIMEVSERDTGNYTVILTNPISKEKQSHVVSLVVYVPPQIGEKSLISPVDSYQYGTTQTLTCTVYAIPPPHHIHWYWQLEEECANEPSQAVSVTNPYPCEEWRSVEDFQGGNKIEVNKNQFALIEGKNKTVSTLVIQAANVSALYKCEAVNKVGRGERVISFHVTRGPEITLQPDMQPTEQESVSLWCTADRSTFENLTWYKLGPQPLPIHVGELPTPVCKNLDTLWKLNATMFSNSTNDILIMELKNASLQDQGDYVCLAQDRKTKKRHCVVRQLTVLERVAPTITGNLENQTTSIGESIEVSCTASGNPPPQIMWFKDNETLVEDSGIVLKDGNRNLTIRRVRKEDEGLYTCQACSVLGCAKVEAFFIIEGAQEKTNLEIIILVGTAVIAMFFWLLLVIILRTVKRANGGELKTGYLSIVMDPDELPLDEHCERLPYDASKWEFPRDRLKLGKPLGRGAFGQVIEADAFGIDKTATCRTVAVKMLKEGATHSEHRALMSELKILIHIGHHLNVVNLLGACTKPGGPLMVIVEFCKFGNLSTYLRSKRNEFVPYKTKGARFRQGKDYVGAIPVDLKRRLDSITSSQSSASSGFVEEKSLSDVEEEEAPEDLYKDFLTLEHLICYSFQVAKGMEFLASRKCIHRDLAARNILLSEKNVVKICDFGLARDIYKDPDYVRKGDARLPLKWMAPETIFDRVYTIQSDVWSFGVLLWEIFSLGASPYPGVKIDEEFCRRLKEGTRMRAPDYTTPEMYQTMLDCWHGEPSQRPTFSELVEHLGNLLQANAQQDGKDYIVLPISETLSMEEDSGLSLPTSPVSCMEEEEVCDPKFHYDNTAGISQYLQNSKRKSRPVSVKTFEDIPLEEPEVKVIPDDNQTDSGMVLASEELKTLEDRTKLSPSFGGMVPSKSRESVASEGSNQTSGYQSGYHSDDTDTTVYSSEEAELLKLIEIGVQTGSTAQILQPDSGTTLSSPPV

Aurora kinase A = target: T3, Aurora kinase A (Homo sapiens, UniProt O14965); assay: Inhibition of AURKA (unknown origin)
T3 sequence (O14965 whole entry): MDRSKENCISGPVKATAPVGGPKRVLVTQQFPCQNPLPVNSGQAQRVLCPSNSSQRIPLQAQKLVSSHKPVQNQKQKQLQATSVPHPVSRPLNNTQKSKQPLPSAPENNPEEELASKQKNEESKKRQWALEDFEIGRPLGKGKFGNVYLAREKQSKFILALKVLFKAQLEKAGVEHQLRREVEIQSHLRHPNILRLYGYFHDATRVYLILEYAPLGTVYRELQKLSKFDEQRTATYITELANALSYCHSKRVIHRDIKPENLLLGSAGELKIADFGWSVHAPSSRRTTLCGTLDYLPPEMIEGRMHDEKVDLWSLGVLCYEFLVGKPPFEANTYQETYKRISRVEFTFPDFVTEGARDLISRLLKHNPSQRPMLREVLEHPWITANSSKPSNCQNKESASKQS

Aurora kinase B = Aurora kinase B (Homo sapiens, UniProt Q96GD4); assay: Inhibition of AURKB (unknown origin)
Sequence of Aurora kinase B (Q96GD4 whole entry): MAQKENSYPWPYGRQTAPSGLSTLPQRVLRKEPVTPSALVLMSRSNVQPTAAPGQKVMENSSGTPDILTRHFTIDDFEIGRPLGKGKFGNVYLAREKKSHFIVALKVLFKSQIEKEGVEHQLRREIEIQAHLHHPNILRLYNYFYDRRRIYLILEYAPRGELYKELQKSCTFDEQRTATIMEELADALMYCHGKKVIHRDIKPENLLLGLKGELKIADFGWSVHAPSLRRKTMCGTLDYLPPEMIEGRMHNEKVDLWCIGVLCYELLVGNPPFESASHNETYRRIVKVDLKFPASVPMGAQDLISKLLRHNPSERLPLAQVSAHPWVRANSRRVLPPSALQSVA

MCF7 = assay: Growth inhibition of human MCF7; type: functional
HCC1954 = assay: Growth inhibition of human HCC1954; type: functional
[4] = Lipophilicity, log D of the compound at pH 7.4; type: physicochemical; conditions: buffer
[5] = Half life in mouse microsomes; type: ADME, Microsome
[6] = Half life in human microsomes; type: ADME, Microsome
[7] = Cmax in mouse at 25 mg/kg, po; type: ADME, organism-based; set-up: dose 25 mg/kg, route oral; conditions: in vivo, BLD = below limit of detection
CYP2C9 = CYP2C9 (Homo sapiens, UniProt P11712); assay: Inhibition of CYP2C9 (unknown origin) at 1 uM; type: ADME
Sequence of CYP2C9 (P11712 whole entry): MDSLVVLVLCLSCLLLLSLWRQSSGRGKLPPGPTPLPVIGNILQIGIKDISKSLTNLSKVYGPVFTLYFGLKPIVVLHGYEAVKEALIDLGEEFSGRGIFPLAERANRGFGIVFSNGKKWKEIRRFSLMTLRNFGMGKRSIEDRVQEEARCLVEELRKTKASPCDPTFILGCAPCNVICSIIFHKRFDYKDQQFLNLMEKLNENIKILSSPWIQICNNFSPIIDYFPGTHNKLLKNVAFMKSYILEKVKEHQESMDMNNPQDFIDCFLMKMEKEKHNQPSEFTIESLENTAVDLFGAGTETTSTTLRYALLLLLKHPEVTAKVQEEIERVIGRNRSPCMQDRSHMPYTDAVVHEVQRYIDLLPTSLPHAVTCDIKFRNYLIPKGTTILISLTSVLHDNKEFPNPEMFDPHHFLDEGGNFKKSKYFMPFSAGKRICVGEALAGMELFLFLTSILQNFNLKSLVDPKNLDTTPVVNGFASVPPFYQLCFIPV

CYP2C19 = CYP2C19 (Homo sapiens, UniProt P33261); assay: Inhibition of CYP2C19 (unknown origin) at 1 uM; type: ADME
Sequence of CYP2C19 (P33261 whole entry): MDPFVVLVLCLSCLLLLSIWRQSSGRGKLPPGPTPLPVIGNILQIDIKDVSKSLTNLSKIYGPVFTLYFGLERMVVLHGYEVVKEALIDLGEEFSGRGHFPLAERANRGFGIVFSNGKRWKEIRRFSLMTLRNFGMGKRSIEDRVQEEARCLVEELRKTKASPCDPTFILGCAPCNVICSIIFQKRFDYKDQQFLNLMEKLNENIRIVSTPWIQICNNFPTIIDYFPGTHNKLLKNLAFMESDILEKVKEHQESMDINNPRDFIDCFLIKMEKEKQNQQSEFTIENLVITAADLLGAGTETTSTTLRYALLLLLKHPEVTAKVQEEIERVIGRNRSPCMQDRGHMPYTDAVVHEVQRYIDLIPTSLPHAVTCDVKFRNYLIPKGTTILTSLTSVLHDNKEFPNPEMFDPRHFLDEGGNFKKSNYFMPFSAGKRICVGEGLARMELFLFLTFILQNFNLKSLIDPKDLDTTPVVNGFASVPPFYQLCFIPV

CYP3A4 = CYP3A4 (Homo sapiens, UniProt P08684); assay: Inhibition of CYP3A4 (unknown origin) at 1 uM; type: ADME
Sequence of CYP3A4 (P08684 whole entry): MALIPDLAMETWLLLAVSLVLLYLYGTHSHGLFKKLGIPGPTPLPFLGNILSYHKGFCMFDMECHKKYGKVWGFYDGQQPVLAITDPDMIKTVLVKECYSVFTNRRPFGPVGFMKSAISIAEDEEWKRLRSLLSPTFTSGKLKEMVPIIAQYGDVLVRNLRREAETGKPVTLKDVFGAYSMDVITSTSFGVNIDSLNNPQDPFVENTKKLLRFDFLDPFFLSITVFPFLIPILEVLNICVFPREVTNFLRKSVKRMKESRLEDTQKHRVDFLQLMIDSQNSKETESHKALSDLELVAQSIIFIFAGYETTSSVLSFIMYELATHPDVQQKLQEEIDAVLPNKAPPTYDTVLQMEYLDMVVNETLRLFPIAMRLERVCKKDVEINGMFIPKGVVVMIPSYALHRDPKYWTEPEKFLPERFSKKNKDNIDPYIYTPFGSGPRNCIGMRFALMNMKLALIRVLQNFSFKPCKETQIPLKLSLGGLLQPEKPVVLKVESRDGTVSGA

[8] = Clearance in rat at 1 mg/kg, iv; type: ADME, organism-based; conditions: in vivo
[9] = Half life in rat at 1 mg/kg, iv; type: ADME, organism-based; conditions: in vivo
[10] = AUC in rat at 1 mg/kg, iv; type: ADME, organism-based; conditions: in vivo
[11] = AUC in rat at 5 mg/kg, po; type: ADME, organism-based; conditions: in vivo, read-out: AUC
[12] = Oral bioavailability in rat at 5 mg/kg; type: ADME, organism-based; conditions: in vivo

IC50 [1]: 0.45 nM
IC50 [2]: 44 nM
GI50 (MDA-MB-468): < 10 nM
IC50 [3]: 5600 nM
IC50 (Aurora kinase A): > 1000 nM
IC50 (Aurora kinase B): 6.9 nM
GI50 (MCF7): < 10 nM
GI50 (HCC1954): 3600 nM
logD [4]: 2.6
half-life [5]: > 60 min
half-life [6]: 59 min
Cmax [7]: Bld
Compound: COc1ccc2c(c1)[C@]1(C[C@H]1c1ccc3c(-c4ccc(N5CCNCC5)cc4)n[nH]c3c1)C(=O)N2

IC50 [2]: 49 nM
GI50 (MDA-MB-468): 4600 nM
Compound: O=C1Nc2ccccc2/C1=C\c1ccc2cn[nH]c2c1

IC50 [1]: 54 nM
IC50 [2]: 200 nM
GI50 (MDA-MB-468): 770 nM
Compound: CN1CCN(c2ccc(-c3n[nH]c4cc([C@@H]5C[C@@]56C(=O)Nc5ccccc56)ccc34)cn2)CC1 (racemic)

IC50 [2]: 98 nM
GI50 (MDA-MB-468): 600 nM
Compound: CN1CCN(c2ccc(-c3n[nH]c4cc([C@@H]5C[C@@]56C(=O)Nc5ccc(F)cc56)ccc34)cn2)CC1

IC50 [1]: 64 nM
IC50 [2]: 50 nM
GI50 (MDA-MB-468): 7700 nM
Compound: O=C1Nc2ccccc2C1=Cc1ccc2c(-c3ccc[nH]3)n[nH]c2c1

IC50 [1]: 490 nM
IC50 [2]: 72 nM
Compound: O=C1Nc2ccccc2/C1=C\c1ccc2c(-c3nccs3)n[nH]c2c1

IC50 [1]: 540 nM
Compound: O=C1Nc2ccccc2C1=Cc1ccc2c(-c3cc4ccccc4[nH]3)n[nH]c2c1

IC50 [2]: 1200 nM
GI50 (MDA-MB-468): 670 nM
Compound: COc1ccc2c(c1)[C@]1(C[C@H]1c1ccc3c(-c4ccc(N5CCOCC5)nc4)n[nH]c3c1)C(=O)N2 (racemic)

logD [4]: 4.2
inhibition at 1 µM (CYP2C9): 73%
inhibition at 1 µM (CYP2C19): 93%
inhibition at 1 µM (CYP3A4): 76%
half-life [5]: 9 min
half-life [6]: 16 min
clearance [8]: 51.7 mL/min/kg
half-life [9]: 144 min
AUC [10]: 330 ng·h/mL
AUC [11]: 250 ng·h/mL
bioavailability [12]: 15%
Compound: COc1ccc2c(c1)[C@]1(C[C@H]1c1ccc3c(/C=C/c4ccc(N5CCN(C)CC5)nc4)n[nH]c3c1)C(=O)N2

IC50 [1]: 30 nM
IC50 [2]: 6500 nM
GI50 (MDA-MB-468): 3700 nM
IC50 [3]: > 50000 nM
IC50 (Aurora kinase A): > 1000 nM
IC50 (Aurora kinase B): 2100 nM
GI50 (MCF7): 5400 nM
GI50 (HCC1954): 5900 nM
Compound: COc1ccc2c(c1)[C@@]1(C[C@@H]1c1ccc3c(-c4ccc(N5CCN(C)CC5)nc4)n[nH]c3c1)C(=O)N2
